Entries after “also recorded” stand apart in the source; their conditions may differ.
Tested on: breast cancer cell lines
Test: Cell growth inhibition assay (Cell Titer Glo, 72 h drug exposure, GI50) across a breast cancer cell line panel, with subtype, copy number and growth rate association analysis
Assay type: cell-based, human
Settings: for Association of response with growth rate (doubling time): 2-way ANCOVA of cell line class and growth rate; for Molecular Subtype in which the compound shows Preferential Activity: Table 7 summary; for Subtype-preferential activity in breast cancer cell lines (in words): running text and figure legends, response as −log10(GI50); for Subtype specificity: Table 1, most sensitive cell line subtype, q<0.10 deemed significant; for Association of 17q12 (ERBB2) amplification with compound response / Association of 20q13 (STK15/AURKA) amplification with compound response: high amplification vs. low or no amplification, t-test; for Response of the cell line panel as a whole: compounds excluded from further analysis

| Compound | Subtype specificity | Subtype-preferential activity in breast cancer cell lines (in words) | other results |
| --- | --- | --- | --- |
| O=c1[nH]cc(F)c(=O)[nH]1 [5-FU, Fluorouracil] | – | – | Association of response with growth rate (doubling time): strong effects of both subtype and growth rate on response; Association of response with growth rate (doubling time) (listed as 5-florouracil): strong significance in the ANCOVA model for both class and doubling time; also recorded: decreases as doubling time increases; Association of response with growth rate (doubling time) (listed as Fluorouracil): active against cell lines with rapid growth rates; also recorded: active against cell lines that grow more quickly; Shift of mean sensitivity between luminal and basal subtypes (ANCOVA model, FIG. 4B): shifts by approximately one log; Molecular Subtype in which the compound shows Preferential Activity: KI67+ tumors; Subtype-preferential activity in breast cancer cell lines (in words) (listed as 5-florouracil): not significant in the subtype test alone; Subtype-preferential activity in breast cancer cell lines (in words) (listed as Fluoruracil): more effective against basal cell lines (both triple negative and claudin-low) than against luminal cell lines |
| C=CCNC1=C2C[C@@H](C)C[C@H](OC)[C@H](O)[C@@H](C)/C=C(\C)[C@H](OC(N)=O)[C@@H](OC)/C=C\C=C(/C)C(=O)NC(=CC1=O)C2=O [17-AAG] | ERBB2AMP | – | Association of 17q12 (ERBB2) amplification with compound response: associated with sensitivity |
| COc1cc2ncnc(Nc3cccc(Cl)c3)c2cc1OC [AG1478] | ERBB2AMP | – | – |
| CN(C)C/C=C/C(=O)Nc1cc2c(Nc3ccc(F)c(Cl)c3)ncnc2cc1O[C@H]1CCOC1 [BIBW 2992] | ERBB2AMP | – | Association of 17q12 (ERBB2) amplification with compound response: associated with sensitivity |
| CCNCCCNC/C=C\CNCCCNCC [CGC-11047] | Basal | – | – |
| N.N.[Cl][Pt][Cl] [Cisplatin] | Basal/Claudin-low | basal cell line sensitivity; also recorded: preferential activity in basal or claudin-low cell lines | – |
| CC(=O)O[C@@]12CO[C@@H]1C[C@H](O)[C@@]1(C)C(=O)[C@H](O)C3=C(C)[C@@H](OC(=O)[C@H](O)[C@@H](NC(=O)OC(C)(C)C)c4ccccc4)C[C@@](O)([C@@H](OC(=O)c4ccccc4)[C@H]21)C3(C)C [Docetaxel] | Basal/Claudin-low | preferential activity in basal or claudin-low cell lines | – |
| C#Cc1cccc(Nc2ncnc3cc(OCCOC)c(OCCOC)cc23)c1 [Erlotinib] | Basal | preferentially active in basal class cell lines | Molecular Subtype in which the compound shows Preferential Activity: Basal (ER−/PR−/HER2−Claudin+) |
| COc1cc([C@@H]2c3cc4c(cc3[C@@H](O[C@@H]3O[C@@H]5CO[C@@H](C)O[C@H]5[C@H](O)[C@H]3O)[C@H]3COC(=O)[C@H]23)OCO4)cc(OC)c1O [Etoposide] | Claudin-low | preferential activity in basal or claudin-low cell lines | – |
| O=C1c2ccccc2-[n+]2ccc3c([nH]c4ccccc43)c21 [Fascaplysin] | Luminal | – | – |
| CCn1cc(-c2ccnc3[nH]c(-c4cccc(CN(C)C)c4)cc23)c(-c2ccc(NC(=O)N(C)C)cc2)n1 [GSK1070916] | Claudin-low | more active against basal and/or claudin-low cell lines | Molecular Subtype in which the compound shows Preferential Activity: Claudin-low; also recorded: Tumors with low or no 20q13 amplification; Association of 20q13 (STK15/AURKA) amplification with compound response: is associated with; also recorded: associated with resistance; Association of 20q13 (STK15/AURKA) amplification with compound response (listed as GSK.AUR1): less effective in tumors that have genomic DNA copy number amplifications at 20q13; Subtype-preferential activity in breast cancer cell lines (in words) (listed as GSK.AUR1): preferentially active against Claudin-low cell lines |
| COc1ncc(-c2ccc3nccc(-c4ccnnc4)c3c2)cc1NS(=O)(=O)c1ccc(F)cc1F [GSK2126458] | Luminal/ERBB2AMP | – | – |
| COc1cc2ncnc(Nc3ccc(F)c(Cl)c3)c2cc1OCCCN1CCOCC1 [Gefitinib] | ERBB2AMP | – | Association of 17q12 (ERBB2) amplification with compound response: associated with sensitivity |
| Cc1[nH]c2ccccc2c1CCNCc1ccc(/C=C/C(=O)NO)cc1 [LBH589] | Luminal | – | – |
| CS(=O)(=O)CCNCc1ccc(-c2ccc3ncnc(Nc4ccc(OCc5cccc(F)c5)c(Cl)c4)c3c2)o1 [Lapatinib] | Luminal/ERBB2AMP | – | – |
| NS(=O)(=O)c1ccc(Nc2nc(OCC3CCCCC3)c3[nH]cnc3n2)cc1 [NU6102] | – | – | Association of 17q12 (ERBB2) amplification with compound response: associated with resistance |
| CCN(CC)CCCCNc1ncc2cc(-c3cc(OC)cc(OC)c3)c(NC(=O)NC(C)(C)C)nc2n1 [PD173074] | Claudin-low | – | – |
| O=C(Nc1cc(Cl)cc2c1[nH]c1cnccc12)c1cccnc1 [PS1145] | – | – | Response of the cell line panel as a whole: almost none of the cell lines in the panel responded strongly |
| O=c1[nH]c2ccccc2n1C1CCN(Cc2ccc(-c3nc4cc5[nH]cnc5cc4nc3-c3ccccc3)cc2)CC1 [Sigma AKT1-2 inhibitor] | Luminal | Luminal and ERBB2AMP cell lines preferentially respond | – |
| CO[C@H]1C[C@@H]2CC[C@@H](C)[C@@](O)(O2)C(=O)C(=O)N2CCCC[C@H]2C(=O)O[C@H]([C@H](C)C[C@@H]2CC[C@@H](OC(=O)C(C)(CO)CO)[C@H](OC)C2)CC(=O)[C@H](C)/C=C(\C)[C@@H](O)[C@@H](OC)C(=O)[C@H](C)C[C@H](C)/C=C/C=C/C=C/1C [Temsirolimus] | Luminal | – | – |
| CC(/C=C/C(=O)NO)=C\[C@@H](C)C(=O)c1ccc(N(C)C)cc1 [Trichostatin A] | Luminal | preferentially active in luminal class cell lines | Molecular Subtype in which the compound shows Preferential Activity: Luminal (ER+/PR+) |
| Cc1cc(Nc2cc(N3CCN(C)CC3)nc(Sc3ccc(NC(=O)C4CC4)cc3)n2)n[nH]1 [VX-680] | not ERBB2AMP | – | – |
| O=C(CCCCCCC(=O)Nc1ccccc1)NO [Vorinostat] | Luminal | preferentially active in luminal class cell lines | Molecular Subtype in which the compound shows Preferential Activity: Luminal (ER+/PR+) |
| O=c1cc(-c2ccccc2)oc2cc(O)c(O)c(O)c12 [baicalein] | – | – | Response of the cell line panel as a whole: almost none of the cell lines in the panel responded strongly |
